We go through 53 compounds from patent publication US10633383B2, “Compounds for the treatment, alleviation or prevention of disorders associated with Tau aggregates” (AC Immune SA, priority 2018, dated 2020).

Some results are limits rather than exact numbers.

T2 sequence (P10636 1-441 isoform P10636-8): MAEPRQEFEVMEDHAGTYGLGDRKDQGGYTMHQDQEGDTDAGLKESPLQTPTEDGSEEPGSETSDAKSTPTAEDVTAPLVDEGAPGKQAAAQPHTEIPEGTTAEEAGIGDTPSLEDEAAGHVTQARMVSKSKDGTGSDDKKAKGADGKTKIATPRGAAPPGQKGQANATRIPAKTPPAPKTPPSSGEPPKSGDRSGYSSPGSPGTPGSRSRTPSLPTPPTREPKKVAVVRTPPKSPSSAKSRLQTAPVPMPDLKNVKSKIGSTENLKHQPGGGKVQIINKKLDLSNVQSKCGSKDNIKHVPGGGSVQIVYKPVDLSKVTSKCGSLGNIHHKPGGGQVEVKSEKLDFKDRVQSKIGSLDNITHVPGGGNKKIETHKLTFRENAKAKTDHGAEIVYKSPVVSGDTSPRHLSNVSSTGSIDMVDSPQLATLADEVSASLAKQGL

The target of the first assay is T1, Tau K18 fragment (amino acids 244 to 372 of human Tau441) aggregates (Homo sapiens, UniProt P10636).
T1 construct: encompassing amino acids 244 to 372 of the longest isoform (2N4R) of human Tau441; host or cells: bacteria
T1 sequence (P10636 561-689): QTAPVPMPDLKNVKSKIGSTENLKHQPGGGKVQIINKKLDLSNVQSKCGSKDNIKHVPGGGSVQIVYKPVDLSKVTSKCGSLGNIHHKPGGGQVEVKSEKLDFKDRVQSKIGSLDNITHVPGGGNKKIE
In words: Tau K18 disaggregation assay by ThT. In kind it is biochemical. The conditions noted are these: 2 μM K18 aggregates, 30 minutes at RT, ThT fluorescence. The protocol:
Tau K18 Disaggregation Assay by ThT
(§1) Compounds were dissolved in anhydrous dimethyl sulfoxide (DMSO, Sigma-Aldrich) to reach a concentration of 10 mM. K18 aggregates and serial dilutions of compounds were mixed together in PBS (volume 50 μL) to a final concentration of 2 μM of K18 aggregates and from 160 to 0.04 μM of compounds. The mixture was incubated for 30 minutes at room temperature (RT), then 40 μL of this mixture were transferred into a black 384-well plate assay (Perkin-Elmer) and mixed with 10 μL of 100 μM ThT in 250 mM glycine (both from Sigma-Aldrich) in PBS. Fluorescence (relative fluorescence units; RFU) was measured in monoplicate or duplicate on a Tecan reader (excitation: 440 nm; emission: 485 nm). Percentage of K18 disaggregation was then calculated and half maximal effective concentration (EC50) was determined using GraphPad Prism version 5 (GraphPad Software) assuming a one-binding site fitting model.
With `Fc1ccc2[nH]c3c(c2c1)CN(c1ccc2sc(N4CCOCC4)nc2c1)CC3` [Example 9], the EC50 is < 10 µM.

Turning to `CN(C)c1nc2ccc(N3CCc4[nH]c5ccc(F)cc5c4C3)cc2o1` [Example 13], the EC50 was < 10 µM.

For `Fc1ccc2c3c([nH]c2c1)CCN(c1cc2sc(N4CCOCC4)nc2cn1)C3` [Example 89, 4-(6-(7-fluoro-1,3,4,5-tetrahydro-2H-pyrido[4,3-b]indol-2-yl)thiazolo[4,5-c]pyridin-2-yl)morpholine], the EC50 is < 10 µM.

For the compound `COc1ccc2c(c1)c1c(n2C)CCN(c2ccc3oc(N(C)C)nc3c2)C1` [Example 96a], the EC50 fell in the range of 10 to 25 µM.

In the case of `Fc1ccc2[nH]c3c(c2c1)CN(c1ccc(N2CCOCC2)cc1)CC3` [Example 115], the EC50 was < 10 µM.

Consider `Fc1ccc2[nH]c3c(c2c1)CN(c1cccc2oc(N4CCOCC4)nc12)CC3` [Example 124], for which the 50% effective concentration (EC50) was < 10 µM.

With `CN(C)c1nc2ccc(N3CCc4c(c5cc(F)ccc5n4C)C3)cc2s1` [Example 3], the EC50 was < 10 µM.

Consider `Fc1ccc2c3c([nH]c2c1)CCN(c1ccc(N2CCOCC2)cn1)C3` [Example 78], for which the EC50 is < 10 µM.

With `Fc1ccc2[nH]c3c(c2c1)CN(c1cnc2nc(N4CCOCC4)ccc2c1)CC3` [Example 112], the concentration giving a half-maximal response (EC50) is < 10 µM.

`Fc1ccc2[nH]c3c(c2c1)CN(c1cnc(N2CCOCC2)cn1)CC3` [Example 100] yielded a concentration for a half-maximal effect (EC50) of 25 to 50 µM.

In the case of `CN(C)c1nc2ccc(N3CCc4[nH]c5ccc(F)cc5c4C3)cc2s1` [Example 7], the EC50 is < 10 µM.

Consider `CNc1nc2ccc(N3CCc4c(c5cc(OC)ccc5n4C)C3)cc2s1` [Example 41], for which the half-maximal effective concentration (EC50) was < 10 µM.

Consider `Fc1ccc2[nH]c3c(c2c1)CN(c1ccc2nc(N4CCOCC4)ccc2n1)CC3` [Example 105a], for which the concentration giving a half-maximal response (EC50) was < 10 µM.

Consider `COc1ccc2[nH]c3c(c2c1)CN(c1ccc2oc(N4CCOCC4)nc2c1)CC3` [Example 24], for which the EC50 was < 10 µM.

`Fc1ccc2[nH]c3c(c2c1)CN(c1ccnc(N2CCOCC2)n1)CC3` [Example 99] showed a concentration for a half-maximal effect (EC50) of 25 to 50 µM.

For the compound `Fc1ccc2[nH]c3c(c2c1)CN(c1ccc2ccc(N4CCOCC4)nc2c1)CC3` [Example 114], the half-maximal effective concentration (EC50) was in the range of 10 to 25 µM.

On to `Fc1ccc2c3c([nH]c2c1)CCN(c1nc2cc(N4CCOCC4)ccc2s1)C3` [Example 107], for which the concentration giving a half-maximal response (EC50) was < 10 µM.

On to `COc1cccc2c3c([nH]c12)CCN(c1ccc2oc(N4CCOCC4)nc2c1)C3` [Example 127], for which the EC50 is < 10 µM.

Take `Fc1cccc2[nH]c3c(c12)CN(c1ccc2oc(N4CCOCC4)nc2c1)CC3` [Example 53]: the half-maximal effective concentration (EC50) is < 10 µM.

On to `Fc1ccc2[nH]c3c(c2c1)CN(c1ccc(N2CCOCC2)nn1)CC3` [Example 97], for which the concentration for a half-maximal effect (EC50) is < 10 µM.

Consider `Fc1cccc2c3c([nH]c12)CCN(c1ccc2oc(N4CCOCC4)nc2c1)C3` [Example 111], for which the half-maximal effective concentration (EC50) was < 10 µM.

In the case of `COc1cc(N2CCc3c(c4cc(F)ccc4n3C)C2)ccc1O` [Example 151], the 50% effective concentration (EC50) is < 10 µM.

For the compound `Fc1ccc2[nH]c3c(c2c1)CN(c1ccc2nc(N4CCOCC4)ccc2c1)CC3` [Example 113], the EC50 was < 10 µM.

A further assay has as its target T2, recombinant full-length (fl)Tau (human Tau 2N4R) aggregates (Homo sapiens, UniProt P10636).
T2 construct: 35 μM of recombinant full-length (fl)Tau in PBS were aggregated; made in house; host or cells: bacteria
In words: Full-length Tau (flTau) disaggregation assay by Thioflavin T (ThT). The conditions noted are these: 2 μM flTau aggregates, 30 minutes at RT, ThT fluorescence. In kind it is biochemical. The protocol: Full-Length Tau (flTau) Disaggregation Assay by Thioflavin T (ThT)
as §1, with “The longest isoform of human Tau (2N4R; 441 amino acids) was expressed in bacteria and purified. For the Tau disaggregation assay by ThT, 35 μM of recombinant full-length (fl)Tau in PBS were aggregated for 24 hours at 37° C. in presence of 50 μM of heparin (Sigma-Aldrich) and 10 mM of DTT (Sigma-Aldrich) under shaking at 750 RPM. Compounds were” for “Compounds were”, “10 mM. flTau aggregates and” for “10 mM. K18 aggregates and”, “μM of flTau aggregates and” for “μM of K18 aggregates and”, “Percentage of flTau disaggregation was” for “Percentage of K18 disaggregation was”, “calculated and the half maximal” for “calculated and half maximal”
As for `Cn1c2c(c3cc(F)ccc31)CN(c1ccc3sc(N4CCOCC4)nc3c1)CC2` [Example 22], the concentration giving a half-maximal response (EC50) was 25 to 50 µM.

Consider `COc1ccc2[nH]c3c(c2c1)CN(c1ccc2sc(N(C)C)nc2c1)CC3` [Example 30], for which the 50% effective concentration (EC50) was < 10 µM.

As to `COc1ccc2c(c1)c1c(n2C)CCN(c2ccc3oc(N4CCOCC4)nc3c2)C1` [Example 21], the half-maximal effective concentration (EC50) lay within 10 to 25 µM.

Regarding `Cn1c2c(c3cc(F)cnc31)CN(c1ccc3nc(N4CCOCC4)oc3c1)CC2` [Example 39], the EC50 is 25 to 50 µM.

As to `Fc1ccc2[nH]c3c(c2c1)CN(c1ccc2sc(N4CCOCC4)nc2c1)CC3` [Example 9], the EC50 was < 10 µM.

For the compound `COc1ccc2[nH]c3c(c2c1)CN(c1ccc2sc(N4CCOCC4)nc2c1)CC3` [Example 23], the EC50 fell in the range of 25 to 50 µM.

In the case of `CN(C)c1nc2cc(N3CCc4c(c5ccc(F)cc5n4C)C3)ccc2o1` [Example 42], the 50% effective concentration (EC50) was 10 to 25 µM.

On to `Cn1c2c(c3ccc(F)cc31)CN(c1ccc3oc(N4CCOCC4)nc3c1)CC2` [Example 65], for which the EC50 was < 10 µM.

Take `Cn1c2c(c3ccc(F)cc31)CN(c1ccc3sc(N4CCOCC4)nc3c1)CC2` [Example 61]: the EC50 is < 10 µM.

As for `COc1ccc2c(c1)c1c(n2C)CCN(c2ccc3nc(N4CCOCC4)sc3c2)C1` [Example 16], the 50% effective concentration (EC50) was < 10 µM.

With `COc1ccc2[nH]c3c(c2c1)CN(c1ccc2nc(N(C)C)oc2c1)CC3` [Example 40], the EC50 is 10 to 25 µM.

`Fc1ccc2c3c([nH]c2c1)CCN(c1ccc2nc(N4CCOCC4)sc2c1)C3` [Example 43]: the EC50 was < 10 µM.

In the case of `Fc1ccc2[nH]c3c(c2c1)CN(c1ccc(N2CCOCC2)nc1)CC3` [Example 74], the 50% effective concentration (EC50) was in the range of 25 to 50 µM.

Regarding `COc1ccc2c(c1)c1c(n2C)CCN(c2ccc3nc(N(C)C)oc3c2)C1` [Example 33], the EC50 was < 10 µM.

In the case of `COc1ccc2[nH]c3c(c2c1)CN(c1ccc2nc(N4CCOCC4)oc2c1)CC3` [Example 18], the EC50 is 10 to 25 µM.

On to `CN(C)c1nc2ccc(N3CCc4[nH]c5ccc(F)cc5c4C3)cc2o1` [Example 13], for which the EC50 is 10 to 25 µM.

In the case of `COc1ccc2c(c1)c1c(n2C)CCN(c2ccc3nc(N(C)C)sc3c2)C1` [Example 31], the 50% effective concentration (EC50) was < 10 µM.

With `Fc1ccc2c3c([nH]c2c1)CCN(c1ccc2sc(N4CCOCC4)nc2c1)C3` [Example 63], the EC50 is < 10 µM.

In the case of `CC(C)Nc1nc2cc(N3CCc4c(c5cc(F)ccc5n4C)C3)ccc2s1` [Example 25], the EC50 is < 10 µM.

Consider `Cn1c2c(c3cc(F)cnc31)CN(c1ccc3nc(N4CCOCC4)sc3c1)CC2` [Example 17], for which the EC50 is < 10 µM.

Take `CN(C)c1nc2cc(N3CCc4c(c5cc(F)ccc5n4C)C3)ccc2o1` [Example 29]: the EC50 is < 10 µM.

Turning to `CN(C)c1nc2cc(N3CCc4c(c5cc(F)ccc5n4C)C3)ccc2s1` [Example 28], the EC50 is < 10 µM.

Regarding `Fc1ccc2c3c([nH]c2c1)CCN(c1ccc2nc(N4CCOCC4)oc2c1)C3` [Example 44], the EC50 is 10 to 25 µM.

Turning to `Cn1c2c(c3ccc(F)cc31)CN(c1ccc3nc(N4CCOCC4)oc3c1)CC2` [Example 62], the EC50 was < 10 µM.

Consider `CN(C)c1nc2ccc(N3CCc4c(c5ccc(F)cc5n4C)C3)cc2s1` [Example 67], for which the EC50 was < 10 µM.

For the compound `CN(C)c1nc2ccc(N3CCc4c(c5cc(F)ccc5n4C)C3)cc2s1` [Example 3], the EC50 is 10 to 25 µM.

As to `COc1ccc2c(c1)c1c(n2C)CCN(c2ccc3sc(N(C)C)nc3c2)C1` [Example 32], the concentration for a half-maximal effect (EC50) lay within 25 to 50 µM.

For `CN(C)c1nc2ccc(N3CCc4[nH]c5cc(F)ccc5c4C3)cc2s1` [Example 54], the EC50 was < 10 µM.

Consider `CN(C)c1nc2ccc(N3CCc4c(c5cc(F)cnc5n4C)C3)cc2s1` [Example 34], for which the EC50 is < 10 µM.

With `Cn1c2c(c3cc(F)ccc31)CN(c1ccc(N3CCOCC3)nc1)CC2` [Example 75], the EC50 lay within 10 to 25 µM.

Take `COc1ccc2[nH]c3c(c2c1)CN(c1ccc2oc(N4CCOCC4)nc2c1)CC3` [Example 24]: the concentration for a half-maximal effect (EC50) was 25 to 50 µM.

Consider `Cn1c2c(c3cc(F)cnc31)CN(c1ccc3oc(N4CCOCC4)nc3c1)CC2` [Example 36], for which the half-maximal effective concentration (EC50) was < 10 µM.

For `Fc1ccc2oc3c(c2c1)CN(c1ccc2oc(N4CCOCC4)nc2c1)CC3` [Example 49], the EC50 is < 10 µM.

Take `CN(C)c1nc2cc(N3CCc4[nH]c5cc(F)ccc5c4C3)ccc2o1` [Example 56]: the EC50 was < 10 µM.
